Experiments:
[1] = target: T1, human P2X4 (Homo sapiens, UniProt Q99571); test: Human P2X4 HEK Cell FLIPR Assay; assay type: cell-based; details: HEK293 stably expressing human P2X4, agonist Bz-ATP 3 μM (EC80); for IC50: read-out: Human P2X4 HEK Cells (FLIPR Assay) avg IC50
T1 construct: expressed in transfected cells
T1 sequence (Q99571 1-388): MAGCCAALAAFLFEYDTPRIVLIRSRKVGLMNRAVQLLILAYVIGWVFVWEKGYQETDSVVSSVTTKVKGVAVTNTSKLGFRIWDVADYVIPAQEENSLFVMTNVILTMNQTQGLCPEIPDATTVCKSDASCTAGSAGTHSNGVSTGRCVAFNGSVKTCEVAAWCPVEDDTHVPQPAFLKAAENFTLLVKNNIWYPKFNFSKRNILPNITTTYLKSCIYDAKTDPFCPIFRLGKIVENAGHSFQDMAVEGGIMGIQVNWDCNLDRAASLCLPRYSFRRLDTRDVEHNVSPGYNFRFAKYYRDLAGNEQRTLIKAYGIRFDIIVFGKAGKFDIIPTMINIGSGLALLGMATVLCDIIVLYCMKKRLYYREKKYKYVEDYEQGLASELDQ
Procedure, shortened: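 Compounds were preincubated 30 min at room temperature on Fluo8-AM-loaded HEK293 cells stably expressing human P2X4. The response was the calcium fluorescence rise on Bz-ATP addition.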

[2] = target: T2, rat P2X4 (Rattus norvegicus, UniProt P51577); test: FLIPR Method for Rat P2X4 1321N1 Astrocytoma Cells; assay type: cell-based; details: 1321N1 stably expressing rat P2X4; agonist MgATP 5 μM (EC80)
T2 construct: expressed in transfected cells
T2 sequence (P51577 1-388): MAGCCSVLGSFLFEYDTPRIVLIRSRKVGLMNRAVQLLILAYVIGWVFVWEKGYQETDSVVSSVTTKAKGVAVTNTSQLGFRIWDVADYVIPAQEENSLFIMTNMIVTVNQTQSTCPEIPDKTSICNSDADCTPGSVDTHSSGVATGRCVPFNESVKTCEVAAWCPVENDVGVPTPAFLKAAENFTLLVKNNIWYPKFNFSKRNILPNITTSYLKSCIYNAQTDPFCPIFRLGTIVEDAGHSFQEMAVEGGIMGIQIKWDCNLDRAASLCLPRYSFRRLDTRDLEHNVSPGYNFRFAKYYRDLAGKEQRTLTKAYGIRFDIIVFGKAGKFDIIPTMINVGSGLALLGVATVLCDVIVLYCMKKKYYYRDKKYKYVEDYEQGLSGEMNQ
Procedure, shortened: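 1321N1 cells stably expressing rat P2X4, Fluo8-AM loaded; compounds (25 μM to 1 nM final, ten concentrations) preincubated 30 min at room temperature, then MgATP added at 5 μM (EC80). Calcium fluorescence read on FLIPR before and after agonist; triplicate data normalized to agonist control, four-parameter fit gives IC50.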

[3] = system: intraplantar Complete Freund's Adjuvant (CFA)-induced acute inflammatory pain; test: CFA Inflammation Model in Rats with Pain Behaviour Read Out; assay type: in vivo, male Sprague Dawley rats; details: for PWT 2 hour-post drug / PWT 4 hour-post drug: mean PWT
Method: Compound was tested in the model of intraplantar Complete Freund's Adjuvant (CFA)-induced acute (48-hours setting) inflammatory pain in male Sprague Dawley rats. Briefly, 25 μl of CFA at 1 mg/ml was injected into the plantar surface of one hind paw. Mechanical hyperalgesia was measured using the Pressure Application Measurement apparatus (Ugo Basile, Gemonio, Italy). A linearly increasing pressure was applied to an area of approximately 50 mm^2 of the plantar side of the hind paw until a behavioural response (paw withdrawal) was observed or until the pressure reached 1000 grams of force (gf). The pressure at which the behavioural response occurred was recorded as the “Paw Withdrawal Threshold” (PWT). Both CFA-injected and contralateral PWTs were determined for each rat, in each treatment group and at each time point of the studies. The measurements were performed blinded. […] Compound or vehicle (10% DMSO, 40% Solutol, 50% water for injection, vol/vol) were dosed via oral route (p.o.) once daily (QD) or twice daily (BID) during 3 days, starting before CFA injection. Data were expressed as the mean PWT for each treatment group and at each time point. PWT data were analysed by performing a two way ANOVA with repeated measures (time×treatment). Planned comparison of means (each versus vehicle) was performed by using a Dunnett's post hoc test, provided that a main effect was detected. For p values less than 0.05, the results were deemed to be statistically significant.

[4] = system: neuropathic mechanical allodynia induced by CCI surgery; test: Chronic Constriction Injury (CCI) Neuropathic Pain Model in Rats with Pain Behavior Read Out; assay type: in vivo, male Sprague-Dawley rats; details: rat CCI; von Frey; gabapentin 100 mg/kg SID on days 0, 2, 5, 9; all post-dose time points
Method: Aim of the study was to test the efficacy of example 68 at ameliorating neuropathic mechanical allodynia. Male Sprague-Dawley rats were subject to chronic constriction injury of the sciatic nerve to induce neuropathic pain. Of those rats, 10 per group were assigned to treatment conditions involving BID drug administration for 10 days and behavioral assessment of mechanical sensitivity for allodynia with von Frey testing (vF). Behavior was assessed pre- and postdosing on Days 0, 2, 5, and 9. Rats were treated with Vehicle or test article BID on days 0 through 9, and rats in the gabapentin treatment group received gabapentin SID on days 0, 2, 5, and 9 in conjunction with behavioral assessment.
As vehicle Solutol/DMSO/WFI (40/10/50) was employed. Application volume for the per oral administration was 10 ml/kg.
Neuropathy was induced in male Sprague-Dawley rats by tying four loose ligatures of chromic gut around the common sciatic nerve in deeply anesthetized rats like described in Bennett, G. J., and Y. K. Xie. “A Peripheral Mononeuropathy in Rat That Produces Disorders of Pain Sensation like Those Seen in Man.” Pain 33 (1988): 87-107.
Mechanical allodynia was measured using 8 Semmes-Weinstein filaments (Stoelting©; Wood Dale, Ill., USA) with varying stiffness (0.4, 0.6, 1.0, 2.0, 4.0, 6.0, 8.0, and 15 g) according to the up-down method1. Animals were placed in individual acrylic chambers on a metal mesh surface and allowed to acclimate to their surroundings for a minimum of 15 minutes before testing. Each filament was presented perpendicular to the plantar surface with sufficient force to cause slight buckling against the paw and held for approximately 6 seconds or until a positive response is noted (paw sharply withdrawn).
Testing was initiated with the 2.0 g filament. In the absence of a paw withdrawal response, the next stronger stimulus was presented. In the event of paw withdrawal, the next weaker stimulus was used. […]
The 50% response threshold is calculated using the formula: […]

[5] = rat CFA, 50 mg/kg QD p.o. during 3 days
[6] = rat CFA, 100 mg/kg QD p.o. during 3 days

Structure (SMILES)	Human P2X4 HEK Cells (FLIPR Assay) avg Efficacy [1] [%]	IC50 [1] [nM]	IC50 [2] [nM]	Rat P2X4 1321N1 Astrocytoma Cells (FLIPR Assay) avg Efficacy [2] [%]	PWT 2 hour-post drug [3, 5] [gf]	PWT 4 hour-post drug [3, 5] [gf]	PWT 2 hour-post drug [3, 6] [gf]	PWT 4 hour-post drug [3, 6] [gf]	pain after treatment ([3]; rat CFA, 50 and 100 mg/kg doses QD, 2 and 4 hours after last administration)	development of inflammatory pain after the injection of CFA ([3]; rat, oral administration QD during 3 days)	paw withdrawal thresholds [4]
CC(=O)N(c1ccc(F)cc1)c1cc(NC(=O)Cc2cccc(F)c2Cl)ccn1 [Example 2, N-{4-[2-(2-chloro-3-fluorophenyl)acetamido]pyridin-2-yl}-N-(4-fluorophenyl)acetamide]	97	212	358	95	727	688	763	839	significantly reduced pain	prevented the development of inflammatory pain	–
CC(=O)N(c1cc(NC(=O)Cc2c(F)cccc2Cl)ccn1)c1ccc(F)cc1F [Example 130, N-{4-[2-(2-chloro-6-fluorophenyl)acetamido]pyridin-2-yl}-N-(2,4-difluorophenyl)acetamide]	97	259	1520	80	–	–	–	–	–	–	–
CC(=O)N(c1cccc(Cl)c1)c1cc(NC(=O)Cc2ccccc2Cl)ccn1 [Example 131, N-(3-chlorophenyl)-N-{4-[2-(2-chlorophenyl)acetamido]pyridin-2-yl}acetamide]	98	206	262	98	–	–	–	–	–	–	–
CC(=O)N(c1cccc(Cl)c1)c1cc(NC(=O)Cc2ccc(F)cc2Cl)ccn1 [Example 132, N-{4-[2-(2-chloro-4-fluorophenyl)acetamido]pyridin-2-yl}-N-(3-chlorophenyl)acetamide]	98	299	228	97	–	–	–	–	–	–	–
CC(=O)N(c1cccc(Cl)c1)c1cc(NC(=O)Cc2cccc(F)c2Cl)ccn1 [Example 133, N-{4-[2-(2-chloro-3-fluorophenyl)acetamido]pyridin-2-yl}-N-(3-chlorophenyl)acetamide]	100	193	325	100	–	–	–	–	–	–	–
CC(=O)N(c1cccc(Cl)c1)c1cc(NC(=O)Cc2c(F)cccc2Cl)ccn1 [Example 135, N-{4-[2-(2-chloro-6-fluorophenyl)acetamido]pyridin-2-yl}-N-(3-chlorophenyl)acetamide]	99	281	264	96	–	–	–	–	–	–	–
CCCC(=O)N(c1ccc(F)cc1)c1cc(NC(=O)Cc2ccc(F)cc2Cl)ccn1 [Example 141, N-{4-[2-(2-chloro-4-fluorophenyl)acetamido]pyridin-2-yl}-N-(4-fluorophenyl)butanamide]	99	891	726	100	–	–	–	–	–	–	–
CCCC(=O)N(c1ccc(F)cc1)c1cc(NC(=O)Cc2c(F)cccc2Cl)ccn1 [Example 142, N-{4-[2-(2-chloro-6-fluorophenyl)acetamido]pyridin-2-yl}-N-(4-fluorophenyl)butanamide]	86	796	767	98	–	–	–	–	–	–	–
CCCC(=O)N(c1ccc(F)cc1)c1cc(NC(=O)Cc2ccccc2Cl)ccn1 [Example 143, N-{4-[2-(2-chlorophenyl)acetamido]pyridin-2-yl}-N-(4-fluorophenyl)butanamide]	94	723	934	101	–	–	–	–	–	–	–
CCCC(=O)N(c1ccc(F)cc1)c1cc(NC(=O)Cc2c(Cl)cccc2Cl)ccn1 [Example 144, N-{4-[2-(2,6-dichlorophenyl)acetamido]pyridin-2-yl}-N-(4-fluorophenyl)butanamide]	90	648	557	100	–	–	–	–	–	–	–
NCC1(CC(=O)O)CCCCC1 [Gabapentin, gabapentin, reference compound]	–	–	–	–	–	–	–	–	–	–	significantly increased paw withdrawal thresholds

From patent US20230257351A1, “SUBSTITUTED N-[…] HAVING P2X4 RECEPTOR ANTAGONISTIC ACTIVITY” (Bayer Aktiengesellschaft, priority 2020, published 2023)
